Measurements: publication PMC11866407, “Structure of Clostridium leptum carboxyspermidine decarboxylase and comparison to homologs prevalent within the human gut microbiome” (Acta Crystallographica Section F: Structural Biology …, 2025)

Molecular target: T1, Clostridium leptum carboxyspermidine decarboxylase (ClCASDC) ([Clostridium] leptum, UniProt A7VSG2)
T1 construct: gene nspC; full length (376 residues), N-terminal His6 tag kept (pET-28b NdeI/XhoI), E. coli BL21 (DE3), codon-optimized; homodimer
T1 sequence (A7VSG2 1-376): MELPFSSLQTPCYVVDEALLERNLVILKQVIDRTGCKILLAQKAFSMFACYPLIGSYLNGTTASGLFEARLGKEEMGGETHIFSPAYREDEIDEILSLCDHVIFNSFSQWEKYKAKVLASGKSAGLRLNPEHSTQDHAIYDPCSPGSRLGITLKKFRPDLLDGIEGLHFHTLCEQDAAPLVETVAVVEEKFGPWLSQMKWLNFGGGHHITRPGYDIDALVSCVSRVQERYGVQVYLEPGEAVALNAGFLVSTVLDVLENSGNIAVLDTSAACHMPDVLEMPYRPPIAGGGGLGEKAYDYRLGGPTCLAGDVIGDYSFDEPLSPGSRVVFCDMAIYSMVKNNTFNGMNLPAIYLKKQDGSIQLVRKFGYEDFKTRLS
Experiment: X-ray crystal structure, […] Å
Format: binding
Conditions: covalent; Schiff base (internal aldimine) with Lys43; pre-incubated with 100 µM PLP, 5 mM DTT; HEPES pH 6.8; both chains

## Cc1ncc(COP(=O)(O)O)c(C=O)c1O [PLP, pyridoxal 5′-phosphate]
  X-ray crystal structure, 1.41 Å: PLP forms a Schiff base with Lys43 in both chains
